From patent publication US20050124606A1, “Novel benzothiazine and benzothiadiazine derivatives method for preparing same and pharmaceutical compositions containing same” (priority 2001, published 2005)

System: AMPA receptors
Experiment: Excitatory fluxes induced by AMPA in Xenopus oocytes injected with rat cerebral cortex mRNA (2-electrode voltage-clamp)
Type: cell-based
Details: rat cortex poly-(A+) mRNA, AMPA 10 μM
Description: Study of the Excitatory Fluxes Induced by AMPA in Xenopus oocytes
mRNAs are prepared from cerebral cortex of male Wistar rat by the guanidinium thiocyanate/phenyl/chloroform method. The poly-(A^+) mRNAs are isolated by chromatography on oligo-dT cellulose and injected in an amount of 50 ng per oocyte. The oocytes are left to incubate for 2 to 3 days at 18° C. to allow expression of the receptors and are then stored at from 8 to 10° C.
Electrophysiological recording is carried out in a Plexiglass® chamber at from 20 to 24° C. in OR2 medium (J. Exp. Zool., 1973, 184, 321-334) by the 2-electrode “voltage-clamp” method, a 3rd electrode being placed in the bath to serve as reference.
All the compounds are administered via the incubation medium and the electric current is measured at the end of the period of administration. AMPA is used at a concentration of 10 μM. For each compound studied, the concentration that doubles (EC2X) or quintuples (EC5X) the intensity of the current induced by AMPA alone (5 to 50 nA) is determined.

Going from `O=S1(=O)NC2CCCN2c2ccc(Oc3ccccc3)cc21` (single isomer, unassigned) [Example 3, 7-Phenoxy-2,3,3a,4-tetrahydro-1H-pyrrolo[2,1-c][1,2,4]-benzothiadiazine 5,5-dioxide, α Isomer] to `CCN1CNS(=O)(=O)c2cc(Oc3ccccc3)ccc21` [Example 29, 4-Ethyl-7-phenoxy-3,4-dihydro-2H-1,2,4-benzothiadiazine 1,1-dioxide], the “EC2X (concentration that doubles the intensity of the current induced by AMPA alone)” value rises from 0.8 µM to 1.4 µM (1.7-fold).

`O=S1(=O)NC2CCCN2c2ccc(Oc3ccccc3)cc21` (single isomer, unassigned) [Example 3, 7-Phenoxy-2,3,3a,4-tetrahydro-1H-pyrrolo[2,1-c][1,2,4]-benzothiadiazine 5,5-dioxide, α Isomer] and `CCN1CNS(=O)(=O)c2cc(Oc3ccccc3)ccc21` [Example 29, 4-Ethyl-7-phenoxy-3,4-dihydro-2H-1,2,4-benzothiadiazine 1,1-dioxide] are within 1.5-fold of each other in “EC5X (concentration that quintuples the intensity of the current induced by AMPA alone)” value: 3.6 µM for the first, 4.5 µM for the second.

System: not given
Experiment: not given
Details: not given

Compared with `O=S1(=O)NC2CCCN2c2ccc(Oc3cc(C(F)(F)F)cc(C(F)(F)F)c3)cc21` (centres unmarked) [Example 16, 7-[3,5-Di(trifluoromethyl)phenoxy]-2,3,3a,4-tetrahydro-1H-pyrrolo[2,1-c][1,2,4]benzothiadiazine 5,5-dioxide], `O=S1(=O)NC2CCCN2c2ccc(Oc3cccc(OC(F)(F)F)c3)cc21` (centres unmarked) [Example 19, 7-(3-Trifluoromethoxyphenoxy)-2,3,3a,4-tetrahydro-1H-pyrrolo-[2,1-c][1,2,4]benzothiadiazine 5,5-dioxide] is lower in melting point: 201 to 203 °C for the first, 175 °C for the second.

First: Cc1ccc(Oc2ccc3c(c2)S(=O)(=O)NC2CCCN32)cc1 (centres unmarked) [Example 7, 7-(4-Methylphenoxy)-2,3,3a,4-tetrahydro-1H-pyrrolo[2,1-c][1,2,4]-benzothiadiazine 5,5-dioxide]
Second: COc1ccc(Oc2ccc3c(c2)S(=O)(=O)NC2CCCN32)cc1 (centres unmarked) [Example 9, 7-(4-Methoxyphenoxy)-2,3,3a,4-tetrahydro-1H-pyrrolo[2,1-c][1,2,4]-benzothiadiazine 5,5-dioxide]
The melting point of the first is higher: 222 to 226 °C for the first, 188 to 191 °C for the second.

First: N#Cc1ccc(Oc2ccc3c(c2)S(=O)(=O)NC2CCCN32)cc1 (centres unmarked) [Example 5, 4-[(5,5-Dioxido-2,3,3a,4-tetrahydro-1H-pyrrolo[2,1-c][1,2,4]benzothiadiazin-7-yl)oxy]benzonitrile]
Second: N#Cc1cccc(Oc2ccc3c(c2)S(=O)(=O)NC2CCCN32)c1 (centres unmarked) [Example 6, 3-[(5,5-Dioxido-2,3,3a,4-tetrahydro-1H-pyrrolo [2,1-c][1,2,4]benzothiadiazin-7-yl)oxy]benzonitrile]
The melting point of the first is higher: 242 to 245 °C for the first, 227 to 230 °C for the second.

Compared with `CCN1CNS(=O)(=O)c2cc(Oc3cccc(C)c3)ccc21` [Example 57, 4-Ethyl-7-(3-methylphenoxy)-3,4-dihydro-2H-[1,2,4]benzothiadiazine 1,1-dioxide], `CCN1CNS(=O)(=O)c2cc(Oc3cccc(OC)c3)ccc21` [Example 32, 4-Ethyl-7-(3-methoxyphenoxy)-3,4-dihydro-2H-1,2,4-benzothiadiazine 1,1-dioxide] is higher in melting point: 72 to 75 °C for the first, 91 to 93 °C for the second.

First: CSc1cccc(Oc2ccc3c(c2)S(=O)(=O)NC2CCCN32)c1 (centres unmarked) [Example 34, 7-(3-Methylsulphanylphenoxy)-2,3,3a,4-tetrahydro-1H-pyrrolo-[2,1-c][1,2,4]benzothiadiazine 5,5-dioxide]
Second: Cc1cccc(Oc2ccc3c(c2)S(=O)(=O)NC2CCCN32)c1 (centres unmarked) [Example 8, 7-(3-Methylphenoxy)-2,3,3a,4-tetrahydro-1H-pyrrolo[2,1-c][1,2,4]-benzothiadiazine 5,5-dioxide]
The melting point of the first is lower: 160 °C for the first, 190 to 195 °C for the second.

Compared with `COC(=O)c1cccc(Oc2ccc3c(c2)S(=O)(=O)NC2CCCN32)c1` (centres unmarked) [Example 26, Methyl 3-[(5,5-dioxido-2,3,3a,4-tetrahydro-1H-pyrrolo[2,1-c][1,2,4]-benzothiadiazin-7-yl)oxy]benzoate], `CCc1cccc(Oc2ccc3c(c2)S(=O)(=O)NC2CCCN32)c1` (centres unmarked) [Example 35, 7-(3-Ethylphenoxy)-2,3,3a,4-tetrahydro-1H-pyrrolo [2,1-c][1,2,4]-benzothiadiazine 5,5-dioxide] is lower in melting point: 223 to 227 °C for the first, 143 to 144 °C for the second.

Compared with `O=S1(=O)NC2CCCN2c2ccc(Oc3cccc(OCc4ccccc4)c3)cc21` (centres unmarked) [Example 22, 7-(3-Benzyloxyphenoxy)-2,3,3a,4-tetrahydro-1H-pyrrolo-[2,1-c][1,2,4]benzothiadiazine 5,5-dioxide], `CCOc1cccc(Oc2ccc3c(c2)S(=O)(=O)NC2CCCN32)c1` (centres unmarked) [Example 18, 7-(3-Ethoxyphenoxy)-2,3,3a,4-tetrahydro-1H-pyrrolo[2,1-c][1,2,4]-benzothiadiazine 5,5-dioxide] is lower in melting point: 179 to 182 °C for the first, 150 °C for the second.

Compared with `CC(C)c1cccc(Oc2ccc3c(c2)S(=O)(=O)NC2CCCN32)c1` (centres unmarked) [Example 36, 7-(3-Isopropylphenoxy)-2,3,3a,4-tetrahydro-1H-pyrrolo[2,1-c][1,2,4]-benzothiadiazine 5,5-dioxide], `O=S1(=O)NC2CCCN2c2ccc(Oc3cccc(Br)c3)cc21` (centres unmarked) [Example 38, 7-(3-Bromophenoxy)-2,3,3a,4-tetrahydro-1H-pyrrolo[2,1-c][1,2,4]-benzothiadiazine 5,5-dioxide] is higher in melting point: 171 to 172 °C for the first, 193 to 195 °C for the second.

Compared with `CCN1CNS(=O)(=O)c2cc(Oc3cccc(C(C)=O)c3)ccc21` [Example 59, 1-{3-[(4-Ethyl-1,1-dioxido-3,4-dihydro-2H-1,2,4-benzothiadiazin-7-yl)oxy]phenyl}ethanone], `CCN1CNS(=O)(=O)c2cc(Oc3cccc(C#N)c3)ccc21` [Example 31, 3-[(4-Ethyl-1,1-dioxido-3,4-dihydro-2H-1,2,4-benzothiadiazin-7-yl)oxy]benzonitrile] is lower in melting point: 164 to 166 °C for the first, 143 to 146 °C for the second.

Compared with `O=S1(=O)NC2CCCN2c2ccc(Oc3cccc4ccccc34)cc21` (centres unmarked) [Example 20, 7-(1-Naphthyloxy)-2,3,3a,4-tetrahydro-1H-pyrrolo[2,1-c][1,2,4]-benzothiadiazine 5,5-dioxide], `O=S1(=O)NC2CCCN2c2ccc(Oc3ccc4ccccc4c3)cc21` (centres unmarked) [Example 21, 7-(2-Naphthyloxy)-2,3,3a,4-tetrahydro-1H-pyrrolo[2,1-c][1,2,4]-benzothiadiazine 5,5-dioxide] is higher in melting point: 227 to 229 °C for the first, 234 to 236 °C for the second.

First: O=[N+]([O-])c1cccc(Oc2ccc3c(c2)S(=O)(=O)NC2CCCN32)c1 (centres unmarked) [Example 15, 7-(3-Nitrophenoxy)-2,3,3a,4-tetrahydro-1H-pyrrolo[2,1-c][1,2,4]-benzothiadiazine 5,5-dioxide]
Second: O=S1(=O)NC2CCCN2c2ccc(Oc3cccc(Cl)c3)cc21 (centres unmarked) [Example 17, 7-(3-Chlorophenoxy)-2,3,3a,4-tetrahydro-1H-pyrrolo[2,1-c][1,2,4]-benzothiadiazine 5,5-dioxide]
The melting point of the first is higher: 201 to 204 °C for the first, 194 to 198 °C for the second.

First: CCN1CNS(=O)(=O)c2cc(Oc3cccc(NS(C)(=O)=O)c3)ccc21 [Example 58, N-{3-[(4-Ethyl-1,1-dioxido-3,4-dihydro-2H-1,2,4-benzothiadiazin-7-yl)oxy]phenyl}methanesulphonamide]
Second: CCN1CNS(=O)(=O)c2cc(Oc3ccccc3)ccc21 [Example 29, 4-Ethyl-7-phenoxy-3,4-dihydro-2H-1,2,4-benzothiadiazine 1,1-dioxide]
The melting point of the first is lower: 165 to 168 °C for the first, 179 to 181 °C for the second.

Compared with `CCN1CNS(=O)(=O)c2cc(Oc3ccc(C)c(C)c3)ccc21` [Example 61, 7-(3,4-Dimethylphenoxy)-4-ethyl-3,4-dihydro-2H-1,2,4-benzothiadiazine 1,1-dioxide], `CCCN1CNS(=O)(=O)c2cc(Oc3ccccc3)ccc21` [Example 30, 4-Propyl-7-phenoxy-3,4-dihydro-2H-1,2,4-benzothiadiazine 1,1-dioxide] is higher in melting point: 109 to 111 °C for the first, 143 to 145 °C for the second.

First: COc1ccccc1Oc1ccc2c(c1)S(=O)(=O)NC1CCCN21 (centres unmarked) [Example 13, 7-(2-Methoxyphenoxy)-2,3,3a,4-tetrahydro-1H-pyrrolo[2,1-c][1,2,4]-benzothiadiazine 5,5-dioxide]
Second: O=S1(=O)NC2CCCN2c2ccc(Oc3cccc(F)c3)cc21 (centres unmarked) [Example 37, 7-(3-Fluorophenoxy)-2,3,3a,4-tetrahydro-1H-pyrrolo [2,1-c][1,2,4]-benzothiadiazine 5,5-dioxide]
The melting point of the first is lower: 175 to 176 °C for the first, 201 °C for the second.
